The source of these data is ChEMBL document CHEMBL4118160, “Heterocycles: Versatile control elements in bioactive macrocycles” (Bioorg Med Chem, 2018).

What is called IC50 is the concentration needed to halve the response being measured. Low readings indicate higher potency, high ones lower potency.

The assay addresses Integrin alpha-V/beta-3 (Homo sapiens, UniProt P05106+P06756). Description: Inhibition of vitronectin binding to alphaVbeta3 integrin (unknown origin) measured after 3 hrs. The assay is classed as protein-complex assay.

Chain of Integrin alpha-V/beta-3 (P05106 27-788 limits assumed): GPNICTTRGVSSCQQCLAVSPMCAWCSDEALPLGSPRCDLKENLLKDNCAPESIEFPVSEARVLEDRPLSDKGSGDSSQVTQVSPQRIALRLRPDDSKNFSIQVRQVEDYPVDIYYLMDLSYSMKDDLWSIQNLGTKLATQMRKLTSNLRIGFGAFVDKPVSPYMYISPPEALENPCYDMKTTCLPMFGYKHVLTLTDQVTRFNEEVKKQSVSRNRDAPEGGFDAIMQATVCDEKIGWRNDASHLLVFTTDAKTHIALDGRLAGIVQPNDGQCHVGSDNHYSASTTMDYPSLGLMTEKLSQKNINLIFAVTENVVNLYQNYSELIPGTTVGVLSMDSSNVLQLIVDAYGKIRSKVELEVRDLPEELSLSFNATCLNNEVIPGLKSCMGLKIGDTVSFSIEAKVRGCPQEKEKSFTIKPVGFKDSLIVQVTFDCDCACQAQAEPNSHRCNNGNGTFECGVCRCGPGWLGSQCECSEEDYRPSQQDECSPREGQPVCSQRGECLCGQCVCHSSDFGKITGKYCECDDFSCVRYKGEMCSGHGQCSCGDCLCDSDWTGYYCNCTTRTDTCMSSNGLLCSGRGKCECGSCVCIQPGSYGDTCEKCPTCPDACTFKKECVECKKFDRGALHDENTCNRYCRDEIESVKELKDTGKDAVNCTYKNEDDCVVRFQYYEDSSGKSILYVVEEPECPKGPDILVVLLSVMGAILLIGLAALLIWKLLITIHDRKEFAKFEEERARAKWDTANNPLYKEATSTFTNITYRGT
Chain of Integrin alpha-V/beta-3 (P06756 31-889 limits assumed): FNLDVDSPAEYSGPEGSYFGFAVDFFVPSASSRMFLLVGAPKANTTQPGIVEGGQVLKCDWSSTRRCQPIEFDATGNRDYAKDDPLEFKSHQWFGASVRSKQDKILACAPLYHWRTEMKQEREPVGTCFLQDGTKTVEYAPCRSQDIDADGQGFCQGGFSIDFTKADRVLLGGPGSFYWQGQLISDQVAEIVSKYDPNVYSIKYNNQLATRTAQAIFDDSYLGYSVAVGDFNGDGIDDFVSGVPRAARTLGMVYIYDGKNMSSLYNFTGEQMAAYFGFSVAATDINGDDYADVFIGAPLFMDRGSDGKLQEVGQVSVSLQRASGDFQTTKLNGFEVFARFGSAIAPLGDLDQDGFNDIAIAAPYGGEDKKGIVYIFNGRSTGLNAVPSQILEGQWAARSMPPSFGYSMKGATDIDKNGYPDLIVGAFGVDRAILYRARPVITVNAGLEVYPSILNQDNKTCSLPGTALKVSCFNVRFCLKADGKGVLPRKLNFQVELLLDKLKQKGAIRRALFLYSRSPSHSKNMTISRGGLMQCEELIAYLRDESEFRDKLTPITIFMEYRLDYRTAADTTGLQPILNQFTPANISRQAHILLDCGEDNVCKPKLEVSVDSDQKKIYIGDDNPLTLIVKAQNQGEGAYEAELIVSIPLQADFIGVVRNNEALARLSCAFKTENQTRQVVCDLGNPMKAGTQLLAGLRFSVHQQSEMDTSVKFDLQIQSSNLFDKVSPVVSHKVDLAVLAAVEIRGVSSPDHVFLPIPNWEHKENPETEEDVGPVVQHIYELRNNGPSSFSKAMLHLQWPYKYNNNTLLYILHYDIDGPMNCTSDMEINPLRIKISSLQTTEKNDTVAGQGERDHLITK
Chain of Integrin alpha-V/beta-3 (P06756 891-1048 limits assumed): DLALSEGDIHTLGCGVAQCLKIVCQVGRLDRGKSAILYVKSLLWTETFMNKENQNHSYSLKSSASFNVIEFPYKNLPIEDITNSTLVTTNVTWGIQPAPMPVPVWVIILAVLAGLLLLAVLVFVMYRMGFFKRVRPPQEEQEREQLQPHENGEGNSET

`N=C(N)NCCC[C@H]1NC(=O)CNC(=O)[C@@H](CC(=O)O)CN[C@H]2O[C@H](C1=O)[C@@H](OCc1ccccc1)[C@H](OCc1ccccc1)[C@H]2OCc1ccccc1` showed a half-inhibitory concentration (IC50) of no more than 150 nM.
Turning to `N=C(N)NCCC[C@H]1NC(=O)CNC(=O)[C@@H](CC(=O)O)CN[C@@H]2O[C@H](C1=O)[C@@H](OCc1ccccc1)[C@H](OCc1ccccc1)[C@H]2OCc1ccccc1`, the IC50 was no more than 150 nM.
